Values of other authors in US20100137442A2, “Sustained Release Particulate Oral Dosage Forms of (R)-Baclofen and Methods of Treatment” (XenoPort, Inc., priority 2008, published 2010).
Values belong to the compound of their own block, whether it stands above or below them.

What was measured:
[1] = dosed either orally or directly into the colon of a mammal
[2] = oral baclofen
[3] = animal models
[4] = oral; 2 mg t.i.d equivalent to racemic baclofen 10 mg t.i.d.

bioavailability as (R)-baclofen [1]: high bioavailability
Compound: CC(C)C(=O)O[C@@H](OC(=O)NC[C@H](CC(=O)O)c1ccc(Cl)cc1)C(C)C [Compound (4), (3R)-4-{[(1S)-2-methyl-1-(2-methylpropanoyloxy)propoxy]carbonylamino}-3-(4-chlorophenyl)butanoic acid]

elimination half-life [2]: 3 to 4 h
absorption following administration into the colon [3]: poorly absorbed
Compound: NCC(CC(=O)O)c1ccc(Cl)cc1 (racemic) [Baclofen, (±)-4-Amino-3-(4-chlorophenyl)butanoic acid]

Compound: NC[C@H](CC(=O)O)c1ccc(Cl)cc1 [(R)-baclofen, R-(−)-baclofen]
potency relative to orally administered racemic baclofen [4]: about 5 fold
